Results: the supplement of paper PMC4932681

Legend:
T-47D Tam2 [1] = assay: relative IC50 (midpoint of fitted logistic curve, plateau may be below 50% inhibition; CellTiter-Glo viability); higher = less potent; details: 4-OH-tamoxifen in medium 1 µM; 72 h
In short: (§1)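 After seeding into 384-well plates with library drugs at five concentrations spanning a 10 000-fold range, breast cancer cell lines and their resistant derivatives were incubated 72 h at 37 °C. Resistant lines received medium with 1 μM of the selecting drug. CellTiter-Glo signal was read on a PHERAstar and scaled to vehicle-only and positive controls. Drug sensitivity score, relative IC50 (the curve midpoint) and top-dose inhibition came from logistic fits run in the Breeze pipeline.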

BT-474 Tam1 [2] = assay: as above; details: 4-OH-tamoxifen in medium 1 µM; 72 h
In short: as §1

ZR-75-1 Tam2 [3] = assay: as above; details: 4-OH-tamoxifen in medium 1 µM; 72 h
In short: as §1

ZR-75-1 [4] = assay: as above; details: 72 h
In short: as §1

T-47D [5] = assay: as above; details: 72 h
In short: as §1

BT-474 [6] = assay: as above; details: 72 h
In short: as §1

MCF-7 Tam1 [7] = assay: as above; details: 4-OH-tamoxifen in medium 1 µM; 72 h
In short: as §1

ZR-75-1 Tam1 [8] = assay: as above; details: 4-OH-tamoxifen in medium 1 µM; 72 h
In short: as §1

T-47D Tam1 [9] = assay: as above; details: 4-OH-tamoxifen in medium 1 µM; 72 h
In short: as §1

MCF-7 [10] = assay: as above; details: 72 h
In short: as §1

T-47D Tam2 [11] = assay: drug sensitivity score (DSS) (DSS (dimensionless)); higher = more sensitive; extreme values may be limits of the assay; details: 4-OH-tamoxifen in medium 1 µM; 72 h
In short: as §1

BT-474 Tam1 [12] = assay: as above; details: 4-OH-tamoxifen in medium 1 µM; 72 h
In short: as §1

ZR-75-1 Tam2 [13] = assay: as above; details: 4-OH-tamoxifen in medium 1 µM; 72 h
In short: as §1

BT-474 Tam2 [14] = assay: as above; details: 4-OH-tamoxifen in medium 1 µM; 72 h
In short: as §1

ZR-75-1 [15] = assay: as above; details: 72 h
In short: as §1

T-47D [16] = assay: as above; details: 72 h
In short: as §1

BT-474 [17] = assay: as above; details: 72 h
In short: as §1

MCF-7 Tam1 [18] = assay: as above; details: 4-OH-tamoxifen in medium 1 µM; 72 h
In short: as §1

ZR-75-1 Tam1 [19] = assay: as above; details: 4-OH-tamoxifen in medium 1 µM; 72 h
In short: as §1

T-47D Tam1 [20] = assay: as above; details: 4-OH-tamoxifen in medium 1 µM; 72 h
In short: as §1

MCF-7 [21] = assay: as above; details: 72 h
In short: as §1

BT-474 Tam2 [22] = assay: relative IC50 (midpoint of fitted logistic curve, plateau may be below 50% inhibition; CellTiter-Glo viability); higher = less potent; details: 4-OH-tamoxifen in medium 1 µM; 72 h
In short: as §1

Row | relative IC50 (T-47D Tam2 [1]) [µM] | relative IC50 (BT-474 Tam1 [2]) [µM] | relative IC50 (T-47D [5]; 4-OH-tamoxifen in medium 0 µM) [µM] | relative IC50 (T-47D [5]; 4-OH-tamoxifen in medium 1 µM) [µM] | relative IC50 (BT-474 [6]; 4-OH-tamoxifen in medium 0 µM) [µM] | relative IC50 (BT-474 [6]; 4-OH-tamoxifen in medium 1 µM) [µM] | relative IC50 (MCF-7 Tam1 [7]) [µM] | relative IC50 (T-47D Tam1 [9]) [µM] | relative IC50 (MCF-7 [10]; 4-OH-tamoxifen in medium 0 µM) [µM] | relative IC50 (BT-474 Tam2 [22]) [µM] | relative IC50 (MCF-7 [10]; 4-OH-tamoxifen in medium 1 µM) [µM] | SMILES | relative IC50 (ZR-75-1 Tam2 [3]) [µM] | relative IC50 (ZR-75-1 [4]; 4-OH-tamoxifen in medium 0 µM) [µM] | relative IC50 (ZR-75-1 [4]; 4-OH-tamoxifen in medium 1 µM) [µM] | relative IC50 (ZR-75-1 Tam1 [8]) [µM] | drug sensitivity score (T-47D Tam2 [11]) | drug sensitivity score (BT-474 Tam1 [12]) | drug sensitivity score (ZR-75-1 Tam2 [13]) | drug sensitivity score (BT-474 Tam2 [14]) | drug sensitivity score (ZR-75-1 [15]; 4-OH-tamoxifen in medium 0 µM) | drug sensitivity score (ZR-75-1 [15]; 4-OH-tamoxifen in medium 1 µM) | drug sensitivity score (T-47D [16]; 4-OH-tamoxifen in medium 0 µM) | drug sensitivity score (T-47D [16]; 4-OH-tamoxifen in medium 1 µM) | drug sensitivity score (BT-474 [17]; 4-OH-tamoxifen in medium 0 µM) | drug sensitivity score (BT-474 [17]; 4-OH-tamoxifen in medium 1 µM) | drug sensitivity score (MCF-7 Tam1 [18]) | drug sensitivity score (ZR-75-1 Tam1 [19]) | drug sensitivity score (T-47D Tam1 [20]) | drug sensitivity score (MCF-7 [21]; 4-OH-tamoxifen in medium 0 µM) | drug sensitivity score (MCF-7 [21]; 4-OH-tamoxifen in medium 1 µM)
1 | > 10 | > 10 | > 10 | > 10 | > 10 | > 10 | > 10 | > 10 | > 10 | – | – | CC1(C)NC(=O)N(c2ccc([N+](=O)[O-])c(C(F)(F)F)c2)C1=O [Nilutamide] | > 10 | > 10 | > 10 | > 10 | 0 | 0 | 0 | 0 | 0 | 0 | 0 | 0 | 0 | 0 | 0 | 0 | 0 | 0 | 0.145
2 | 1.14 | – | 0.921 | 0.21 | – | – | 0.197 | 1.16 | 0.0789 | > 10 | 0.0802 | C[C@@]1(C(=O)Nc2ccc(F)nc2)CCCN1c1nc(Nc2cc(C3CC3)n[nH]2)c2cccn2n1 | > 10 | > 10 | > 10 | > 10 | 6.16 | 0.49 | 0 | 0 | 0 | 0 | 5.37 | 7.74 | 0.215 | 0.473 | 13.2 | 0 | 4.88 | 17.7 | 21
3 | 1.53 | 1.59 | 2.22 | 2.6 | 1.27 | – | 1.79 | 0.797 | 3.66 | 0.619 | 1.1 | COC1=CC(c2cc3ccccc3[nH]2)=N/C1=C\c1[nH]c(C)cc1C [Obatoclax (GX15-070)] | 1.42 | 2.38 | 1.71 | – | 3.22 | 3.09 | 4.94 | 12.1 | 1.96 | 2.4 | 3.35 | 2.73 | 6.87 | 0.367 | 4.3 | 1.02 | 8.83 | 2 | 8.57
4 | > 1 | > 1 | > 1 | > 1 | > 1 | > 1 | > 1 | 0.314 | > 1 | – | – | CN1CCC(COc2cnc(-c3cccc(Cn4nc(-c5cccc(C#N)c5)ccc4=O)c3)nc2)CC1 | > 1 | > 1 | > 1 | > 1 | 0 | 0 | 0 | 1.22 | 0 | 0 | 0 | 0 | 0 | 0 | 0 | 0 | 3.13 | 0 | 0.0353
5 | > 1 | > 1 | > 1 | > 1 | > 1 | > 1 | > 1 | > 1 | > 1 | – | > 1 | O=C(Nc1c[nH]nc1-c1nc2ccc(CN3CCOCC3)cc2[nH]1)NC1CC1 [AT9283] | > 1 | > 1 | > 1 | > 1 | 0 | 0 | 0 | 0 | 0 | 0 | 0 | 0 | 0 | 0 | 0 | 0 | 0 | 0 | 0
6 | > 40 | > 40 | > 40 | > 40 | > 40 | > 40 | > 40 | > 40 | > 40 | – | > 40 | CC[C@@H]1C(=O)OC[C@@H]1Cc1cncn1C [Pilocarpine] | > 40 | > 40 | > 40 | > 40 | 0 | 0 | 0 | 0 | 0 | 0 | 0 | 0 | 0 | 0 | 0 | 0 | 0 | 0 | 0
7 | > 10 | – | > 10 | > 10 | > 10 | > 10 | > 10 | > 10 | > 10 | – | > 10 | Clc1ccc(Nc2nnc(Cc3ccncc3)c3ccccc23)cc1 [Vatalanib] | > 10 | > 10 | > 10 | > 10 | 0 | 0 | 0 | 0.0042 | 0 | 0 | 0 | 0 | 0 | 0 | 0 | 0 | 0 | 0 | 0
